The source of these data is paper PMC7144182, “Synthesis, biological evaluation and molecular modelling of 2,4-disubstituted-5-(6-alkylpyridin-2-yl)-1H-imidazoles as ALK5 inhibitors” (Journal of Enzyme Inhibition and Medicinal Chemistry, 2020).

Series [1] addresses T1, purified human ALK5 kinase domain (Homo sapiens, UniProt P36897).
T1 construct: using the purified human ALK5 kinase domain produced in Sf9 insect cells; host or cells: Sf9 insect cells
T1 sequence (P36897 205-495 limits assumed): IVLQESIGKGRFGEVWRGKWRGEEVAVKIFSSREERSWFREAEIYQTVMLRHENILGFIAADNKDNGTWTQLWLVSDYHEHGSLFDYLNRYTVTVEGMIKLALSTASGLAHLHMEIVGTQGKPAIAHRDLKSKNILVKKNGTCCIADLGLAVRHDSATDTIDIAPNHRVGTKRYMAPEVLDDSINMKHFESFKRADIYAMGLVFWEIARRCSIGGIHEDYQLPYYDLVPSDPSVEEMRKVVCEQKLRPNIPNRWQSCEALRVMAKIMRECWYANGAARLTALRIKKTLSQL
As to the kind of experiment: ALK5 kinase assay (33PanQinase, casein as substrate). The class given is biochemical. As to conditions: for IC50: casein substrate, 1 μM ATP, singlicate (11e: mean of triplicates); for fold more potent than the benzo[1,3]dioxol-5-yl analogue: 11a vs 7a, 16a vs 7b; for fold less potent than the corresponding 6-methylpyridyl analogue / fold more inhibiting than the respective methylene linker analogue: vs 11a; for fold less potent than the corresponding 6-methylpyridyl analogue: 11e, 16a, 16e respectively; for fold more inhibiting than the corresponding m-CONH2 analogues 16e and 16f: ethylene linker series; for fold more inhibiting than the respective methylene linker analogue: 11b, 11c, 11g respectively.
Experimental: To evaluate whether these potential inhibitors 7a–c, 11a–h, and 16a–h could inhibit ALK5, a kinase assay was performed using the purified human ALK5 kinase domain produced in Sf9 insect cells and casein as a substrate (Table 1).

Another series has as its system Caco-2 cells. As to the kind of experiment: Caco-2 cell permeability assay. Type of series: in vitro ADME. As to conditions: 100 µM, AP to BL, 2 h; mean ± SD of quadruplicates. The procedure: Caco-2 cells were seeded in Transwell® polycarbonate filter at a density of 8 × 10^4 cells/filter and cultured for 21 days. Culture medium was removed from both apical (AP) and basolateral (BL) chambers of transwell, and the wells were rinsed three times with PBS. AP buffer (HBSS, pH 6.5) containing 10 mM MES and BL buffer (HBSS, pH 7.4) containing 10 mM HEPES were loaded in AP (500 µL) and BL (1500 µL) chambers, respectively, followed by incubation for 30 min at 37 °C. Then, test compound (100 µM) was added to the AP side and incubated for 2 h at 37 °C. After the incubation, BL buffer was collected and analysed using an UV spectrophotometer at a maximum wavelength (wavelength 225–357 nm).
To estimate oral absorption of target compounds, their permeability in a Caco-2 monolayer was evaluated at a concentration of 100 µM (Table 1).
For orientation: Passage across Caco-2 layers is used to estimate intestinal permeability.

The subject of series [2] is TGF-β1-induced luciferase reporter activity, HaCaT (3TP-luc) stable cells. As to the kind of experiment: Cell-based p3TP-luciferase reporter assay. As to conditions: for % inhibition in luciferase reporter assay: 0.1 µM inhibitor; for p3TP-luciferase activity (% control): 0.1 μM inhibitor, TGF-β1 2 ng/mL, 24 h, mean ± SD of three independent experiments. The procedure: To establish HaCaT (3TP-luc) stable cells, cells were seeded on six-well plates. Cells were allowed to adhere overnight and then transfected with the p3TP-luc (neo) expression plasmid using PEI reagent (Sigma Aldrich). Transfected cells were cultured for four weeks in the presence of G418 (500 µg/mL). Several single clones were isolated and measured luciferase activity. The clone showing response to TGF-β1 treatment was used for reporter assay. HaCaT (3TP-luc) stable cells were seeded at 2.5 × 10^4 cells/well in 96-well plate and were allowed to adhere overnight. Cells were concomitantly treated with TGF-β1 (2 ng/mL) and indicated concentrations of ALK5 inhibitors in 0.2% FBS medium and incubated for 24 h at 37 °C in 5% CO2. Cell lysates were prepared using Luciferase Assay System (Promega) according to the manufacturer’s instruction, and luminescence was measured by a luminometer, Micro Lumat Plus (Berthold, Germany).
For orientation: Reporter assays use an easily measured gene product as a stand-in for the process of interest.

The IC50 is the concentration needed to halve the response being measured.

Marks after values point to notes of the source that are not given here.

For `Cc1cccc(-c2[nH]c(Cc3ccc(C(N)=O)cc3)nc2-c2ccc3c(c2)OCO3)n1` [Compound 7a, 4-((4-(Benzo[d][1,3]dioxol-5-yl)-5-(6-methylpyridin-2-yl)-1H-imidazol-2-yl)methyl)benzamide], in series [1], the IC50 amounted to 224 nM. Moreover, in the series with Caco-2 cells, the “Caco-2 permeability (%)” value is reported as 35 ± 0.7^f %. Also, in series [2], the “% inhibition in luciferase reporter assay” value (“% inhibition” for short) came to 72 % inhibition and the “p3TP-luciferase activity (% control)” value stood at 28 ± 7.1 % control.

As to `Cc1cccc(-c2[nH]c(CCc3ccc(C(N)=O)cc3)nc2-c2ccc3c(c2)OCO3)n1` [Compound 7b, 4-(2-(4-(Benzo[d][1,3]dioxol-5-yl)-5-(6-methylpyridin-2-yl)-1H-imidazol-2-yl)ethyl)benzamide], the concentration for half-maximal inhibition (IC50) in series [1] was 93 nM. Besides, in series [1] (kinase assay), the “fold higher ALK5 inhibitory activity than 7a” value was determined as 2.4 fold and the “fold higher ALK5 inhibitory activity than 7c” value is listed as 3.6 fold. Also, in the series with Caco-2 cells, the “Caco-2 permeability (%)” value amounted to 23 ± 3.0%. Besides, in series [2], the “% inhibition” value was 74 % inhibition and the “p3TP-luciferase activity (% control)” value is 26 ± 7.9 % control.

Take `Cc1cccc(-c2[nH]c(CCCc3ccc(C(N)=O)cc3)nc2-c2ccc3c(c2)OCO3)n1` [Compound 7c, 4-(3-(4-(Benzo[d][1,3]dioxol-5-yl)-5-(6-methylpyridin-2-yl)-1H-imidazol-2-yl)propyl)benzamide]: the IC50 in series [1] is 338 nM. The “Caco-2 permeability (%)” value in the series with Caco-2 cells is reported as 32 ± 1.1%. In series [2], the “% inhibition” value worked out at 40 % inhibition and the “p3TP-luciferase activity (% control)” value is 60 ± 9.5 % control.

`Cc1cccc(-c2[nH]c(Cc3ccc(C(N)=O)cc3)nc2-c2ccc3nccnc3c2)n1` [Compound 11a, 4-((5-(6-Methylpyridin-2-yl)-4-(quinoxalin-6-yl)-1H-imidazol-2-yl)methyl)benzamide]: the “fold more potent than the benzo[1,3]dioxol-5-yl analogue” value in series [1] (kinase assay) is 2.5 fold. The compound further displayed a half-maximal inhibitory concentration (IC50) in series [1] of 88 nM. Moreover, the “Caco-2 permeability (%)” value in the series with Caco-2 cells was found to be 25 ± 1.3%. For the same compound, in series [2], the “% inhibition” value is 84 % inhibition and the “p3TP-luciferase activity (% control)” value was 16 ± 4.5 % control.

Regarding `CCc1cccc(-c2[nH]c(Cc3ccc(C(N)=O)cc3)nc2-c2ccc3nccnc3c2)n1` [Compound 11b, 4-((5-(6-Ethylpyridin-2-yl)-4-(quinoxalin-6-yl)-1H-imidazol-2-yl)methyl)benzamide], the IC50 in series [1] came out at 112 nM. In addition, in series [1] (kinase assay), the “fold less potent than the corresponding 6-methylpyridyl analogue” value is given as 1.3 fold. Besides, in the series with Caco-2 cells, the “Caco-2 permeability (%)” value amounted to 26 ± 3.5%. In series [2], the “p3TP-luciferase activity (% control)” value was 33 ± 21.3 % control.

The compound `CC(C)c1cccc(-c2[nH]c(Cc3ccc(C(N)=O)cc3)nc2-c2ccc3nccnc3c2)n1` [Compound 11c, 4-((5-(6-Isopropylpyridin-2-yl)-4-(quinoxalin-6-yl)-1H-imidazol-2-yl)methyl)benzamide] had an IC50 in series [1] of 2190 nM. Further, the “fold less potent than the corresponding 6-methylpyridyl analogue” value in series [1] (kinase assay) is 13–35 fold. In addition, in the series on Caco-2 cells, the “Caco-2 permeability (%)” value was determined as 30 ± 9.0%. Further, the “p3TP-luciferase activity (% control)” value in series [2] was determined as 39 ± 11.4 % control.

`CCCCc1cccc(-c2[nH]c(Cc3ccc(C(N)=O)cc3)nc2-c2ccc3nccnc3c2)n1` [Compound 11d, 4-((5-(6-n-Butylpyridin-2-yl)-4-(quinoxalin-6-yl)-1H-imidazol-2-yl)methyl)benzamide] registered an IC50 in series [1] of 2700 nM. Further, the “Caco-2 permeability (%)” value in the series with Caco-2 cells is reported as 41 ± 5.3%. The “p3TP-luciferase activity (% control)” value in series [2] is reported as 85 ± 32.5 % control.

Consider `CCc1cccc(-c2[nH]c(Cc3cccc(C(N)=O)c3)nc2-c2ccc3nccnc3c2)n1` [Compound 11f, 3-((5-(6-Ethylpyridin-2-yl)-4-(quinoxalin-6-yl)-1H-imidazol-2-yl)methyl)benzamide], for which half-maximal inhibition in series [1] (IC50) was put at 75 nM. Besides, in series [1] (kinase assay), the “fold less potent than the corresponding 6-methylpyridyl analogue” value is 2.1 fold. The “Caco-2 permeability (%)” value in the series on Caco-2 cells turned out to be 38 ± 13.8%. Further, the “p3TP-luciferase activity (% control)” value in series [2] turned out to be 17 ± 3.7 % control.

`CC(C)c1cccc(-c2[nH]c(Cc3cccc(C(N)=O)c3)nc2-c2ccc3nccnc3c2)n1` [Compound 11g, 3-((5-(6-Isopropylpyridin-2-yl)-4-(quinoxalin-6-yl)-1H-imidazol-2-yl)methyl)benzamide] displayed a half-inhibitory concentration (IC50) in series [1] of 1250 nM. Also, the “fold less potent than the corresponding 6-methylpyridyl analogue” value in series [1] (kinase assay) is listed as 13–35 fold. Moreover, the “Caco-2 permeability (%)” value with Caco-2 cells was determined as 34 ± 15.6%. For the same compound, in series [2], the “p3TP-luciferase activity (% control)” value turned out to be 69 ± 6.7 % control.

In turn, `CCCCc1cccc(-c2[nH]c(Cc3cccc(C(N)=O)c3)nc2-c2ccc3nccnc3c2)n1` [Compound 11h, 3-((5-(6-n-Butylpyridin-2-yl)-4-(quinoxalin-6-yl)-1H-imidazol-2-yl)methyl)benzamide] returned a 50% inhibitory concentration (IC50) in series [1] of 1040 nM. Moreover, the “p3TP-luciferase activity (% control)” value in series [2] is on record as 83 ± 21.1 % control.

As for `Cc1cccc(-c2[nH]c(CCc3ccc(C(N)=O)cc3)nc2-c2ccc3nccnc3c2)n1` [Compound 16a, 4-(2-(5-(6-Methylpyridin-2-yl)-4-(quinoxalin-6-yl)-1H-imidazol-2-yl)ethyl)benzamide], in series [1] (kinase assay), the “fold more potent than the benzo[1,3]dioxol-5-yl analogue” value turned out to be 3.1 fold. In series [1], inhibition was half-maximal at 30 nM (IC50); the “fold more inhibiting than the corresponding m-CONH2 analogues 16e and 16f” value stood at 1.6 fold; the “fold more inhibiting than the respective methylene linker analogue” value is given as 2.9 fold. In addition, the “Caco-2 permeability (%)” value with Caco-2 cells turned out to be 45 ± 5.3%. In addition, in series [2], the “% inhibition” value turned out to be 85 % inhibition and the “p3TP-luciferase activity (% control)” value stood at 15 ± 8.2 % control.

Regarding `CCc1cccc(-c2[nH]c(CCc3ccc(C(N)=O)cc3)nc2-c2ccc3nccnc3c2)n1` [Compound 16b, 4-(2-(5-(6-Ethylpyridin-2-yl)-4-(quinoxalin-6-yl)-1H-imidazol-2-yl)ethyl)benzamide], in series [1], the IC50 came out at 41 nM; the “fold more inhibiting than the corresponding m-CONH2 analogues 16e and 16f” value came out at 1.6 fold; the “fold more inhibiting than the respective methylene linker analogue” value is on record as 2.7 fold. Further, in series [1] (kinase assay), the “fold less potent than the corresponding 6-methylpyridyl analogue” value came out at 1.4 fold. Further, the “Caco-2 permeability (%)” value in the series with Caco-2 cells was 25 ± 3.7%. For the same compound, in series [2], the “% inhibition” value is 84 % inhibition and the “p3TP-luciferase activity (% control)” value is reported as 16 ± 8.4 % control.

For `CC(C)c1cccc(-c2[nH]c(CCc3ccc(C(N)=O)cc3)nc2-c2ccc3nccnc3c2)n1` [Compound 16c, 4-(2-(5-(6-Isopropylpyridin-2-yl)-4-(quinoxalin-6-yl)-1H-imidazol-2-yl)ethyl)benzamide], in series [1], 653 nM corresponded to half-maximal inhibition (IC50) and the “fold more inhibiting than the respective methylene linker analogue” value was 3.4 fold. Further, the “fold less potent than the corresponding 6-methylpyridyl analogue” value in series [1] (kinase assay) is recorded as 13–35 fold. Moreover, the “Caco-2 permeability (%)” value with Caco-2 cells was 23 ± 3.1%. Further, in series [2], the “p3TP-luciferase activity (% control)” value turned out to be 85 ± 38.9 % control.

`CCCCc1cccc(-c2[nH]c(CCc3ccc(C(N)=O)cc3)nc2-c2ccc3nccnc3c2)n1` [Compound 16d, 4-(2-(5-(6-n-Butylpyridin-2-yl)-4-(quinoxalin-6-yl)-1H-imidazol-2-yl)ethyl)benzamide]: in series [1], half-maximal inhibition (IC50) was put at 2380 nM. Moreover, in the series on Caco-2 cells, the “Caco-2 permeability (%)” value turned out to be 24 ± 1.9%. For the same compound, the “p3TP-luciferase activity (% control)” value in series [2] worked out at 76 ± 5.7 % control.

Turning to `Cc1cccc(-c2[nH]c(CCc3cccc(C(N)=O)c3)nc2-c2ccc3nccnc3c2)n1` [Compound 16e, 3-(2-(5-(6-Methylpyridin-2-yl)-4-(quinoxalin-6-yl)-1H-imidazol-2-yl)ethyl)benzamide], half-maximal inhibition in series [1] (IC50) required 47 nM. For the same compound, the “Caco-2 permeability (%)” value in the series with Caco-2 cells is listed as 21 ± 9.5%. Besides, in series [2], the “% inhibition” value turned out to be 93 % inhibition and the “p3TP-luciferase activity (% control)” value is reported as 7 ± 0.7 % control.
